The values below come from ChEMBL document CHEMBL1275605, “Rapid assessment of antibacterial activity against Mycobacterium ulcerans by using recombinant luminescent strains” (2010).

Structures are written as SMILES. Values after ≈ are worked out from the molar mass of the structure shown. Active and inactive are the calls of the source. No cut-off for these calls is given here.

Test [1] concerns Mycobacterium ulcerans. The test can be described thus: Antimicrobial activity against Mycobacterium ulcerans 1059 harboring pTY60K containing pMH94 carrying the luxAB gene under the hsp60 promoter after 14 days determined according to RLU count by real-time luminescence method. The class given is functional. The conditions noted are these: Mycobacterium ulcerans, 1059, 336 h.
For test [2], the system named is Mycobacterium ulcerans. The test can be described thus: Antimicrobial activity against Mycobacterium ulcerans ATCC 19423 harboring pTY60K containing pMH94 carrying the luxAB gene under the hsp60 promoter after 7 days determined according to CFU count by bioluminescence method. It counts as functional. The conditions noted are these: ATCC 19423, 168 h.
Test [3] deals with Mycobacterium ulcerans. Description: Antimicrobial activity against Mycobacterium ulcerans 1059 harboring pTY60K carrying the luxAB gene under the hsp60 promoter agar dilution method. It counts as functional.
Test [4] concerns Mycobacterium ulcerans. Description: Antimicrobial activity against Mycobacterium ulcerans 1059 agar dilution method. The class given is functional.
For test [5], the system named is Mycobacterium ulcerans. Description: Antimicrobial activity against Mycobacterium ulcerans ATCC 19423 harboring pTY60K containing pMH94 carrying the luxAB gene under the hsp60 promoter after 7 days determined according to RLU count by real-time luminescence method. It counts as functional. The conditions noted are these: ATCC 19423, 168 h.
Test [6] has as its system Mycobacterium ulcerans. Description: Antimicrobial activity against Mycobacterium ulcerans 1059 harboring pTY60K containing pMH94 carrying the luxAB gene under the hsp60 promoter after 14 days determined according to CFU count by bioluminescence method. It counts as functional. The conditions noted are these: Mycobacterium ulcerans, 1059, 336 h.
Test [7] relates to Mycobacterium ulcerans. The test can be described thus: Antimicrobial activity against Mycobacterium ulcerans ATCC 19423 harboring pTY60H assessed as 4-fold increase in reserpine-mediated inhibition of bacterial growth after 14 days. It counts as functional, organism-based.
In test [8] the test system is Mycobacterium ulcerans. Description: Antimicrobial activity against Mycobacterium ulcerans ATCC 19423 agar dilution method. The class given is functional.
Test [9] concerns Mycobacterium ulcerans. Description: Antimicrobial activity against Mycobacterium ulcerans ATCC 19423 harboring pTY60H containing pCK0601 carrying the luxAB gene under the hsp60 promoter after 14 days determined according to CFU counts by bioluminescence method. The class given is functional. The conditions noted are these: ATCC 19423, 336 h.
For test [10], the system named is Mycobacterium ulcerans. Description: Antimicrobial activity against Mycobacterium ulcerans ATCC 19423 harboring pTY60H carrying the luxAB gene under the hsp60 promoter determined after 14 days in presence of 2.5 ug/ml ATP-cassette transporter inhibitor reserpine. It counts as functional, organism-based.
For test [11], the system named is Mycobacterium ulcerans. Description: Antimicrobial activity against Mycobacterium ulcerans ATCC 19423 harboring pTY60H containing pCK0601 carrying the luxAB gene under the hsp60 promoter after 14 days determined according to RLU count by real-time luminescence method. The class given is functional. The conditions noted are these: ATCC 19423, 336 h.
The subject of test [12] is Mycobacterium ulcerans. Description: Antimicrobial activity against Mycobacterium ulcerans Cu001 agar dilution method. It counts as functional.
For test [13], the system named is Mycobacterium ulcerans. The test can be described thus: Antimicrobial activity against Mycobacterium ulcerans ATCC 19423 harboring pTY60H carrying the luxAB gene under the hsp60 promoter agar dilution method. It counts as functional.
For test [14], the system named is Mycobacterium ulcerans. Description: Antimicrobial activity against Mycobacterium ulcerans ATCC 19423 harboring pTY60H assessed as 2-fold increase in reserpine-mediated inhibition of bacterial growth after 14 days. It counts as functional, organism-based.

For the compound `CC[C@H]1OC(=O)[C@H](C)[C@@H](O[C@H]2C[C@@](C)(OC)[C@@H](O)[C@H](C)O2)[C@H](C)[C@@H](O[C@@H]2O[C@H](C)C[C@H](N(C)C)[C@H]2O)[C@](C)(OC)C[C@@H](C)C(=O)[C@H](C)[C@@H](O)[C@]1(C)O` [CLARITHROMYCIN], the MIC stood at 0.13 µg/mL (≈ 0.174 µM) in the test on Mycobacterium ulcerans [1]; 0.03 µg/mL (≈ 0.0401 µM) against Mycobacterium ulcerans [2]; 0.25 µg/mL (≈ 0.334 µM) in the test with Mycobacterium ulcerans [3]; 0.25 µg/mL (≈ 0.334 µM) with Mycobacterium ulcerans [4]; 0.13 µg/mL (≈ 0.174 µM) in the test on Mycobacterium ulcerans [5]; 0.25 µg/mL (≈ 0.334 µM) in the test with Mycobacterium ulcerans [6].

With `CC[C@H]1OC(=O)[C@H](C)[C@@H](O[C@H]2C[C@@](C)(OC)[C@@H](O)[C@H](C)O2)[C@H](C)[C@@H](O[C@@H]2O[C@H](C)C[C@H](N(C)C)[C@H]2O)[C@](C)(O)C[C@@H](C)C(=O)[C@H](C)[C@@H](O)[C@]1(C)O` [ERYTHROMYCIN], the result in the test with Mycobacterium ulcerans [7] and in the test on Mycobacterium ulcerans [10] was Active. The MIC is greater than 16 µg/mL in the test with Mycobacterium ulcerans [8], 1 µg/mL (≈ 1.36 µM) against Mycobacterium ulcerans [9] and 0.5 µg/mL (≈ 0.681 µM) with Mycobacterium ulcerans [11].

In the case of `CN[C@@H]1C[C@H](N)[C@@H](O)[C@H](O[C@H]2O[C@H](CO)[C@H](O)[C@@H]3O[C@@]4(O[C@@H]23)O[C@H]([C@H](N)CO)[C@H](O)[C@H](O)[C@H]4O)[C@H]1O` [HYGROMYCIN], the minimum inhibitory concentration (MIC) in the test with Mycobacterium ulcerans [8] and against Mycobacterium ulcerans [12] was no more than 12.5 µg/mL throughout.

`NNC(=O)c1ccncc1` [ISONIAZID]: the MIC against Mycobacterium ulcerans [1], in the test on Mycobacterium ulcerans [2], in the test on Mycobacterium ulcerans [4], in the test on Mycobacterium ulcerans [5] and in the test with Mycobacterium ulcerans [6] was greater than 40 µg/mL each time.

Consider `NC[C@H]1O[C@H](O[C@H]2[C@H](O)[C@@H](O[C@H]3O[C@H](CO)[C@@H](O)[C@H](N)[C@H]3O)[C@H](N)C[C@@H]2N)[C@H](O)[C@@H](O)[C@@H]1O` [KANAMYCIN], for which the minimal inhibitory concentration (MIC) against Mycobacterium ulcerans [8] and in the test with Mycobacterium ulcerans [12] was no more than 5 µg/mL in each case.

Regarding `CC(=O)NC[C@H]1CN(c2ccc(N3CCOCC3)c(F)c2)C(=O)O1` [LINEZOLID], the MIC in the test on Mycobacterium ulcerans [1] came out at 2 µg/mL (≈ 5.93 µM); in the test on Mycobacterium ulcerans [2], 1 µg/mL (≈ 2.96 µM); in the test on Mycobacterium ulcerans [3] it was 1 µg/mL (≈ 2.96 µM); with Mycobacterium ulcerans [4], 1 µg/mL (≈ 2.96 µM); with Mycobacterium ulcerans [5], 1 µg/mL (≈ 2.96 µM); against Mycobacterium ulcerans [6], 4 µg/mL (≈ 11.9 µM).

As for `COc1c(N2C[C@@H]3CCCN[C@@H]3C2)c(F)cc2c(=O)c(C(=O)O)cn(C3CC3)c12` [MOXIFLOXACIN], the minimum inhibitory concentration (MIC) is greater than 0.25 µg/mL against Mycobacterium ulcerans [1]; 0.03 µg/mL (≈ 0.0747 µM) against Mycobacterium ulcerans [2]; greater than 0.5 µg/mL in the test with Mycobacterium ulcerans [4]; 0.03 µg/mL (≈ 0.0747 µM) against Mycobacterium ulcerans [5]; no more than 0.016 µg/mL in the test with Mycobacterium ulcerans [8]; no more than 0.03 µg/mL with Mycobacterium ulcerans [9]. The minimal inhibitory concentration (MIC) is no more than 0.03 µg/mL in the test with Mycobacterium ulcerans [11], greater than 0.25 µg/mL with Mycobacterium ulcerans [6] and 0.03 µg/mL (≈ 0.0747 µM) against Mycobacterium ulcerans [13].

As to `CO[C@H]1/C=C/O[C@@]2(C)Oc3c(C)c(O)c4c(O)c(c(/C=N/N5CCN(C)CC5)c(O)c4c3C2=O)NC(=O)/C(C)=C\C=C\[C@H](C)[C@H](O)[C@@H](C)[C@@H](O)[C@@H](C)[C@H](OC(C)=O)[C@@H]1C` [RIFAMPIN], the minimal inhibitory concentration (MIC) against Mycobacterium ulcerans [1] is 0.06 µg/mL (≈ 0.0729 µM); against Mycobacterium ulcerans [2], no more than 0.016 µg/mL; in the test on Mycobacterium ulcerans [3] it was 0.5 µg/mL (≈ 0.608 µM); with Mycobacterium ulcerans [4], 0.13 µg/mL (≈ 0.158 µM); with Mycobacterium ulcerans [5], 0.03 µg/mL (≈ 0.0365 µM); in the test with Mycobacterium ulcerans [8], 0.5 µg/mL (≈ 0.608 µM). The MIC in the test on Mycobacterium ulcerans [9] is no more than 0.03 µg/mL; against Mycobacterium ulcerans [11] it was no more than 0.03 µg/mL; in the test on Mycobacterium ulcerans [6], 0.03 µg/mL (≈ 0.0365 µM); in the test on Mycobacterium ulcerans [13] it was 0.5 µg/mL (≈ 0.608 µM).

For `CN[C@@H]1[C@H](O[C@H]2[C@H](O[C@H]3[C@H](O)[C@@H](O)[C@H](N=C(N)N)[C@@H](O)[C@@H]3N=C(N)N)O[C@@H](C)[C@]2(O)C=O)O[C@@H](CO)[C@H](O)[C@H]1O` [STREPTOMYCIN], the MIC in the test on Mycobacterium ulcerans [1] is 0.13 µg/mL (≈ 0.224 µM); against Mycobacterium ulcerans [2], 0.25 µg/mL (≈ 0.43 µM); in the test with Mycobacterium ulcerans [3] it was 0.25 µg/mL (≈ 0.43 µM); against Mycobacterium ulcerans [4], 0.25 µg/mL (≈ 0.43 µM); with Mycobacterium ulcerans [5], 0.5 µg/mL (≈ 0.86 µM); with Mycobacterium ulcerans [8], 0.25 µg/mL (≈ 0.43 µM). Further, the MIC was 1 µg/mL (≈ 1.72 µM) against Mycobacterium ulcerans [9], 1 µg/mL (≈ 1.72 µM) against Mycobacterium ulcerans [11], 0.13 µg/mL (≈ 0.224 µM) with Mycobacterium ulcerans [6] and 0.25 µg/mL (≈ 0.43 µM) in the test on Mycobacterium ulcerans [13].

Turning to `CN(C)[C@@H]1C(O)=C(C(N)=O)C(=O)[C@@]2(O)C(O)=C3C(=O)c4c(O)cccc4[C@@](C)(O)[C@H]3C[C@@H]12` [TETRACYCLINE], the minimum inhibitory concentration (MIC) against Mycobacterium ulcerans [8] is 10 µg/mL (≈ 22.5 µM); against Mycobacterium ulcerans [9], 2.5 µg/mL (≈ 5.63 µM); in the test with Mycobacterium ulcerans [11], 2.5 µg/mL (≈ 5.63 µM); against Mycobacterium ulcerans [13], 5 µg/mL (≈ 11.3 µM). Besides, the result in the test on Mycobacterium ulcerans [14] and with Mycobacterium ulcerans [10] was Active.
